Laboratory results reported in article PMC11357160, “Gouregine, an α-Gem-Dimethyltetradehydrocularine Alkaloid, and Other Aporphinoid Alkaloids from the Bark of Guatteria olivacea (Annonaceae) and Their In Vitro Cytotoxic Activities” (Molecules, 2024).
“And” between values parts separate entries of the source, which are not always exact repeats. Equal entries are not always repeated. Structures can show the parent of a compound that is named as a salt.

Key:
[1] = tested on: HepG2 (human hepatocellular carcinoma); experiment: Alamar blue cytotoxicity assay, 72 h, HepG2; format: cell-based; conditions: for IC50: Homo sapiens, HepG2, Alamar blue, 72 h incubation
Protocol: (§1) The in vitro cytotoxic activities of the isolated compounds 1–9 were evaluated against the cancer cell lines HepG2 (human hepatocellular carcinoma), KG-1a (human myeloid leukemia), and HCT116 (human colon carcinoma), and the noncancerous cell line MRC-5 (human lung fibroblast) via the Alamar blue assay after 72 h of incubation.
(§2) The HepG2 (human hepatocellular carcinoma), KG-1a (human myeloid leukemia), HCT116 (human colon carcinoma), and MRC-5 (human lung fibroblast) cell lines were obtained from the American Type Culture Collection (ATCC, Manassas, VA, USA) and were cultured as recommended by the American Type Culture Collection (ATCC) animal culture guide. All the cell lines were tested for mycoplasma via a mycoplasma stain kit (Sigma-Aldrich) to validate the use of cells that were free from contamination.
(§3) For the cytotoxicity assay, cell viability was quantified via the Alamar blue method, as previously described. For all the experiments, the cells were plated in 96-well plates. The chemical constituents evaluated varied in purity between 90% and 99.8%, which was determined on the basis of the relative integrals of the signals of the constituents in relation to the signals of the impurities contained. Most of the constituents had purities greater than 95%, except for constituents 4 and 5, which had purities of approximately 90%. The chemical constituents were dissolved in dimethyl sulfoxide (DMSO, Vetec Química Fina Ltda., Duque de Caxias, RJ, Brazil), added to each well, and incubated for 72 h. […] At the end of the treatment, 20 µL of a stock solution (0.312 mg/mL) of resazurin (Sigma-Aldrich Co.) was added to each well. The absorbances at 570 nm and 600 nm were measured via a SpectraMax 190 Microplate Reader (Molecular Devices, Sunnyvale, CA, USA). The half-inhibitory concentration (IC50) was obtained via nonlinear regression with 95% confidence intervals (CIs 95%) via the software GraphPad Prism 8 (Intuitive Software for Science; San Diego, CA, USA).

[2] = tested on: HCT116 (human colon carcinoma); experiment: Alamar blue cytotoxicity assay, 72 h, HCT116; format: cell-based; conditions: for IC50: Homo sapiens, HCT-116, HCT116, Alamar blue, 72 h incubation; for Selectivity index (SI): SI = IC50 [noncancerous cells MRC-5]/IC50 [HCT116]
Protocol: as §1, §2, §3

[3] = tested on: MRC-5 (human lung fibroblast); experiment: Alamar blue cytotoxicity assay, 72 h, noncancerous MRC-5; format: cell-based; conditions: MRC5, MRC-5 noncancerous cells, 72 h incubation
Protocol: as §1, §2, §3

[4] = set-up: method as in PMID 25065531, PMID 33290909, PMID 15540220, PMID 12951096, PMID 35597316; conditions: cited from earlier work
cancer cells = tested on: cancer cells; set-up: method as in PMID 25065531, PMID 33290909, PMID 15540220, PMID 12951096, PMID 35597316; conditions: cited from earlier work
HL-60 leukemia cells = tested on: HL-60 leukemia cells; set-up: method as in ref 47 Kim et al.; conditions: HL-60 cells, via p38 MAPK pathway; ref 47 Kim et al.; cited from earlier work
[5] = tested on: KG-1a (human myeloid leukemia); experiment: Alamar blue cytotoxicity assay, 72 h, KG-1a; format: cell-based; conditions: 72 h incubation
Protocol: as §2
as §3, with “Most of the constituents had purities greater than 95%, except for constituents 4 and 5, which had purities of approximately 90%.” left out, “The half-inhibitory concentration (IC50) was obtained via nonlinear regression with 95% confidence intervals (CIs 95%) via the software GraphPad Prism 8 (Intuitive Software for Science; San Diego, CA, USA).” left out

[6] = tested on: Akt activation in anaplastic human thyroid cancer cells; set-up: method as in PMID 38139812; conditions: cited from earlier work
[7] = tested on: human colon cancer cell lines and cancer stem cells (Wnt/β-catenin); set-up: method as in PMID 37656375; conditions: through the inhibition of Wnt/β-catenin; cited from earlier work
[8] = set-up: method as in ref 41 = [41]; 41. Osorio D.E.J. Montoya P.G.L. Muñoz D.K. Arango A.G.J. Actividad antiplasmodial de alcaloides aporfínicos de Rollinia pittieri Y Pseudomalmea boyacana (Annonaceae) Vitae 2006 13 49 54; conditions: cited from earlier work
human cancer cells = tested on: human cancer cells; set-up: method as in ref 41 = [41]; 41. Osorio D.E.J. Montoya P.G.L. Muñoz D.K. Arango A.G.J. Actividad antiplasmodial de alcaloides aporfínicos de Rollinia pittieri Y Pseudomalmea boyacana (Annonaceae) Vitae 2006 13 49 54; conditions: cited from earlier work
[9] = tested on: CAOV-3 ovarian cancer cells; set-up: method as in PMID 25792804; conditions: CAOV-3 cells, mitochondrial pathway, activation of caspase-3 and caspase-9; cited from earlier work

COc1c2c3c(c(OC)c1OC)-c1ccc(O)cc1C(C)(C)C3=NCC2 [9-hydroxyiguattescine (4), 9-hydroxyiguattescine]
IC50 [1]: > 25 µg/mL and > 70.7 µM | IC50 [2]: > 25 µg/mL and > 70.7 µM | IC50 [3]: > 25 µg/mL and > 70.7 µM

C=C[C@@]1(C)CC=C2C(CCC3[C@](C)(C(=O)O)CCC[C@@]23C)C1 (stereo partly drawn) [Acanthoic acid (7), acanthoic acid]
IC50 [1]: 14.6 µg/mL and 48.4 µM | IC50 [2]: 21.2 µg/mL and 70.2 µM | IC50 [3]: > 25 µg/mL and > 82.7 µM | anti-inflammatory activity [4]: anti-inflammatory activity | cytotoxicity to cancer cells (cancer cells): low cytotoxicity | apoptotic cell death (HL-60 leukemia cells): causing apoptotic cell death

COc1c(O)c2c3c(c1OC)CCN=C3C(C)(C)c1cc(O)ccc1-2 [Dihydromelosmine (5), dihydromelosmine]
IC50 [1]: > 25 µg/mL and > 73.7 µM | IC50 [2]: > 25 µg/mL and > 73.7 µM | IC50 [3]: > 25 µg/mL and > 73.7 µM

COc1cccc2c1C(=O)c1c(O)c3c(c(O)c1C2=O)C[C@@](O)(C(=O)CO)C[C@@H]3O[C@H]1C[C@H](N)[C@H](O)[C@H](C)O1 [Doxorubicin, doxorubicin hydrochloride, reference compound]
IC50 [1]: 0.04 µg/mL and 70 nM | Selectivity index (SI) ([1]; SI = IC50 [noncancerous cells MRC-5]/IC50 [HepG2]): 35.50 | IC50 [5]: 0.22 µg/mL and 400 nM | IC50 [2]: 0.2 µg/mL and 360 nM | Selectivity index (SI) [2]: 7.10 | IC50 [3]: 1.42 µg/mL and 2.61 µM

COc1c(O)c2c3c(nccc3c1OC)C(C)(C)c1cc(O)ccc1O2 [Gouregine (9), gouregine]
IC50 [1]: > 25 µg/mL and > 70.7 µM | IC50 [5]: > 25 µg/mL and > 70.7 µM | IC50 [3]: > 25 µg/mL and > 70.7 µM

COc1c2c3c(c(OC)c1OC)-c1ccc(O)cc1C(C)(O)C3=NCC2 (stereo not drawn) [Guattouregidine (8), guattouregidine]
IC50 [1]: > 25 µg/mL and > 73.2 µM | IC50 [2]: > 25 µg/mL and > 73.2 µM | IC50 [3]: > 25 µg/mL and > 73.2 µM

COc1c(O)c2c3c(c1OC)CCN[C@@H]3Cc1ccccc1-2 [Isopiline (1), isopiline]
IC50 [2]: > 25 µg/mL and > 84.1 µM | IC50 [3]: > 25 µg/mL and > 84.1 µM

COc1cc2ccnc3c2c(c1OC)-c1ccccc1C3=O [Lysicamine (6), lysicamine]
IC50 [2]: 6.64 µg/mL and 22.8 µM | Selectivity index (SI) [2]: 2.60 | IC50 [3]: 17.2 µg/mL and 59.2 µM | effect on Akt activation [6]: inhibit Akt activation | effect on colon cancer cell lines and cancer stem cells [7]: suppress human colon cancer cell lines and cancer stem cells

COc1c(O)c2c3c(nccc3c1OC)C(C)(C)c1cc(O)ccc1-2 [Melosmine (3), melosmine]
IC50 [2]: 16.8 µg/mL and 49.7 µM | Selectivity index (SI) [2]: 1.41 | IC50 [3]: 23.7 µg/mL and 70.3 µM | antimalarial activity [8]: antimalarial agent | cytotoxicity to human cancer cells (human cancer cells): low cytotoxicity

COc1c2c3c(c(OC)c1OC)-c1ccccc1CC3NCC2 (stereo not drawn) [O-Methylisopiline (2), O-methylisopiline]
IC50 [2]: > 25 µg/mL and > 80.3 µM | IC50 [3]: > 25 µg/mL and > 80.3 µM

O=C1c2ccccc2-c2c3c(cc4ccnc1c24)OCO3 [liriodenine]
apoptosis [9]: caused apoptosis
